The test system of test [1] is rabbit jugular vein ring segments. The test is described as follows: Maximal contractile response of vein rings in vascular smooth muscle bath. The format is cell-based. Conditions: for Maximal Physiological Responses, Control: fresh vein rings (n = 15); for Maximal Physiological Responses, Control / Maximal Physiological Responses, Vitrified: Mean ± SEM; for Maximal Physiological Responses, % of corresponding fresh controls: vein rings vitrified with VS55 versus fresh vein rings; for Maximal Physiological Responses, Vitrified: vein rings vitrified with vitrification solution VS55 (n = 26). As to the method:
Vein rings, which are about 4 mm long segments of rabbit external jugular veins, are vitrified in VS55 by the method described above for longer external jugular vein segments, except that perfusion is not used. […] The baseline tension of all vein rings is adjusted to 0.25 to 0.75 g. Changes in tension are recorded by force transducers. After 1 hour of equilibration, the vein rings are pretested with potassium chloride for contraction. After rinsing with KH solution, the vein rings are equilibrated for another 30 minutes prior to the start of experiment. During a relaxation experiment, contraction of the vein rings is produced by 10^−6M norepinephrine and, after the contractile response plateaus, cumulative concentrations of acetylcholine (10^−10M to 10^−4M) are added to the bathing medium to induce the endothelium dependent relaxation response. In the current study, histamine, bradykinin, angiotensin II, and norepinephrine are tested in rabbit jugular vein ring segments vitrified with VS55 and fresh vein rings. Both histamine and bradykinin produce contraction in the vein via their local receptors. Norepinephrine acts directly on the adrenoceptor, while angiotensin II binds to AT receptors and acts through local renin-angiotensin systems.

The test system of test [2] is artery ring segments. The test is described as follows: Maximal contractile response of artery rings. The format is cell-based. Conditions: for Maximal Physiological Responses, Vitrified: artery rings vitrified with VS55 (norepinephrine n = 37, phenylephrine n = 23); for Maximal Physiological Responses, Vitrified / Maximal Physiological Responses, Control: Mean ± SEM; for Maximal Physiological Responses, % of corresponding fresh controls: artery rings vitrified with VS55 versus fresh controls; for Maximal Physiological Responses, Control: fresh rings (norepinephrine n = 16, phenylephrine n = 12). As to the method:
Vein rings, which are about 4 mm long segments of rabbit external jugular veins, are vitrified in VS55 by the method described above for longer external jugular vein segments, except that perfusion is not used. After being rewarmed, the vein rings are mounted between two stainless steel wire hooks and suspended in a vascular smooth muscle bath containing 5 ml of Krebs Henseleit (KH) solution, which is gassed continuously with 95% O2 and 5% CO2 at 37° C. The baseline tension of all vein rings is adjusted to 0.25 to 0.75 g. Changes in tension are recorded by force transducers. After 1 hour of equilibration, the vein rings are pretested with potassium chloride for contraction. After rinsing with KH solution, the vein rings are equilibrated for another 30 minutes prior to the start of experiment. During a relaxation experiment, contraction of the vein rings is produced by 10^−6M norepinephrine and, after the contractile response plateaus, cumulative concentrations of acetylcholine (10^−10M to 10^−4M) are added to the bathing medium to induce the endothelium dependent relaxation response.
Artery rings are vitrified in VS55 by the method described above for vein rings. After being rewarmed, norepinephrine and phenylephrine are tested in artery ring segments vitrified with VS55 and fresh artery rings.

As for `NCCc1c[nH]cn1` [Histamine, histamine], in test [1], the “Maximal Physiological Responses, Control” value was found to be 1.78 ± 0.19 g; the “Maximal Physiological Responses, % of corresponding fresh controls” value (from here on “Maximal Physiological Responses, %”) is 87.1%; the “Maximal Physiological Responses, Vitrified” value stood at 1.55 ± 0.27 g.
`NC[C@H](O)c1ccc(O)c(O)c1` [Norepinephrine, norepinephrine]: in test [2], the “Maximal Physiological Responses, Vitrified” value is on record as 2.58 ± 0.23 g; the “Maximal Physiological Responses, %” value stood at 90.8%; the “Maximal Physiological Responses, Control” value is given as 2.84 ± 0.38 g. In test [1], the “Maximal Physiological Responses, Control” value was determined as 0.99 ± 0.12 g; the “Maximal Physiological Responses, %” value was found to be 83.8%; the “Maximal Physiological Responses, Vitrified” value amounted to 0.83 ± 0.14 g.
On to `CNC[C@H](O)c1cccc(O)c1` [Phenylephrine, phenylephrine], for which, in test [2], the “Maximal Physiological Responses, Vitrified” value came out at 2.23 ± 0.29 g; the “Maximal Physiological Responses, %” value was 88.3%; the “Maximal Physiological Responses, Control” value is reported as 2.53 ± 0.45 g.
Consider “angiotensin II (DRVYIHPF; Angiotensin-2; UniProt P01019 25-32, looked up)”, for which, in test [1], the “Maximal Physiological Responses, Control” value is 0.58 ± 0.06 g; the “Maximal Physiological Responses, %” value is given as 84.5%; the “Maximal Physiological Responses, Vitrified” value worked out at 0.49 ± 0.09 g.

These data come from patent US7157222B2, “Method of cryopreservation of tissues by vitrification” (Organ Recovery Systems, Inc., priority 1999, dated 2007).
